Results reported in US8044071B2, “Method for reducing side effects of CB2 receptor agonist therapy using a combination of a selective CB2 receptor agonist and a selective CB1 receptor antagonist” (Abbott Laboratories, priority 2007, dated 2011).
Read-outs that look alike come from different tables or passages of the source.

Legend:
human CB1 = biological target: T1, human CB1 (Homo sapiens, UniProt P21554); assay: CB1 radioligand binding assay ([3H]CP-55,940 competition)
T1 construct: purchased Perkin Elmer; host or cells: HEK293 membranes
T1 sequence (P21554 whole entry): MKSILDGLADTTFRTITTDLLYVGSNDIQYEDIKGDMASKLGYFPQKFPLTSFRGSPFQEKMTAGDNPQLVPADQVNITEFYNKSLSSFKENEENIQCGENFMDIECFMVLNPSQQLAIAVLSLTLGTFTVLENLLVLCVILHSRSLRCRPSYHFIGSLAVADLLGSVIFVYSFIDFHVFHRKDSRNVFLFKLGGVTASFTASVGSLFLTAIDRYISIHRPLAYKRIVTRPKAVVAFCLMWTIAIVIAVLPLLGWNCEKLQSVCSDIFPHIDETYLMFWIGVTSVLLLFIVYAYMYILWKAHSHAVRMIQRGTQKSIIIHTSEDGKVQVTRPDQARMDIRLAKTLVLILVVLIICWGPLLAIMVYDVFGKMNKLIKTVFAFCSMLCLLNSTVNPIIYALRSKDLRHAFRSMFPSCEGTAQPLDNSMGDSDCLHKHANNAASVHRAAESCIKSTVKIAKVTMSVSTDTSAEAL
Experimental: To determine the selectivity (Ki) of the compounds of the present application for CB2 receptors relative to CB1 receptors, radioligand binding assays are performed, which are described herein.
For CB1 radioligand binding assay HEK293 human CB1 membranes were purchased from Perkin Elmer. Binding was initiated by the addition of membranes (8-12 μg per well) into wells (Scienceware 96-well DeepWell plate, VWR, West Chester, Pa.) containing [^3H]CP-55,940 (120 Ci/mmol, Perkin Elmer, Boston, Mass.) and a sufficient volume of assay buffer (50 mM Tris, 2.5 mM EDTA, 5 mM MgCl2, and 0.5 mg/mL fatty acid free BSA, pH 7.4) to bring the total volume to 250 μL. After incubation (30° C. for 90 minutes), binding was terminated by the addition of 300 μL per well of cold assay buffer and rapid vacuum filtration (FilterMate Cell Harvester, Perkin Elmer, Boston, Mass.) through a UniFilter-96 GF/C filter plate (Perkin Elmer, Boston, Mass.) (pre-soaked in 0.3% PEI at least 3 hours), followed by five washes with cold assay buffer. The bound activity was counted in the TopCount using Microscint-20 (both from Perkin Elmer, Boston, Mass.). Competition experiments were conducted with 1 nM [^3H]CP-55,940 and five concentrations (1 nM to 10 μM) of displacing ligands. The addition of 10 μM unlabeled CP-55,940 (Tocris, Ellisville, Mo.) was used to assess nonspecific binding.

hind limb grip force = assay: Grip force behavior (hind limb); format: in vivo; conditions: rat, 30 μmol/kg i.p.
Experimental: Adverse effects can be assessed by measurements of Grip Force (GF) Behavior. Measurements of hind limb grip force are conducted by recording the maximum compressive force exerted on the hind limb strain gauge setup, in a commercially available grip force measurement system (Columbus Instruments, Columbus, Ohio). During testing, animals are gently restrained by grasping around its rib cage and then allowed to grasp the wire mesh frame (10×12 cm^2) attached to the strain gauge. The experimenter then moves the animal in a rostral-to-caudal direction until the grip is broken. Each animal is sequentially tested twice at approximately 2-3 min interval to obtain a raw mean grip force (CFmax). This raw mean grip force data is in turn converted to a maximum hindlimb compressive force (CFmax) (gram force)/kg body weight for each animal. A group mean±S.E.M. for CFmax/kg body weight is calculated. A group of age-matched naïve animals are added to each experiment and the data obtained from the different dose groups for each compound—or compound combination—being tested are compared to the naïve group (assigned as being 100% normal). […]
Using the grip force behavior assay, the effects of CB2 agonist B were evaluated after the administration of vehicle or the CB1 antagonist rimonabant. […]

mean arterial pressure = assay: Mean arterial pressure in anesthetized rats; format: in vivo; conditions: anesthetized rat
Experimental: Male Sprague-Dawley rats were anesthetized with the long acting barbiturate, Inactin. Catheters were placed in the femoral artery for measurement of MAP and HR. Additional catheters were placed in the femoral vein for compound administration and saline infusion to maintain hydration. Following a 30-minute control period, vehicle (PEG400), compound B (vehicle: PEG400; 2 ml/kg) or CB2 agonist B (vehicle: PEG400; 2 ml/kg) plus CB1 antagonist rimonabant (vehicle: PEG400; 1 ml/kg) was administered intravenously over a 30-minute infusion. When administered simultaneously, compound B and rimonabant were infused individually using separate syringes. The doses tested were 1.0 mg/kg for compound B and 3.2 mg/kg for rimonabant. Data is expressed as mean from 3 rats ±sem. […] These effects indicate that the reduction in blood pressure by CB2 agonist B results from its residual activation of the CB1 receptor.

SMILES	Ki (human CB1) [nM]	reduction of grip force, agonist after rimonabant (hind limb grip force; rimonabant 30 μmol/kg i.p. 15 min before)	reduction of grip force, agonist after vehicle (hind limb grip force; tested 30 min after second dose) [%]	effect on mean arterial pressure (MAP), agonist with rimonabant (mean arterial pressure; 1.0 mg/kg i.v. plus rimonabant 3.2 mg/kg i.v., 30-minute infusion)	effect on mean arterial pressure (MAP), agonist alone (mean arterial pressure; 1.0 mg/kg intravenously over 30-minute infusion)	Ki (human CB1; HEK293 human CB1 membranes, 1 nM [3H]CP-55,940, read-out: Ki for CB1 receptors) [nM]
CCCCn1cc(C(C)(C)C)s/c1=N\C(=O)c1cc(Cl)ccc1OC [compound A, (Z)—N-(5-tert-butyl-3-butylthiazol-2(3H)-ylidene)-5-chloro-2-methoxybenzamide]	3670					
COCCn1c(C)c(C)s/c1=N\C(=O)C1C(C)(C)C1(C)C [compound B, (Z)—N-(3-(2-methoxyethyl)-4,5-dimethylthiazol-2(3H)-ylidene)-2,2,3,3-tetramethylcyclopropanecarboxamide]		completely blocked	42	devoid of an effect on blood pressure relative to vehicle	has an effect to reduce blood pressure	273
